≈ marks a conversion by molar mass, not a printed value.
Legend:
[1] = Kinetic solubility of compound in PBS at pH 7.4 measured after 5 hrs by UV analysis; format: physicochemical; details: read-out: Kinetic_solubility
[2] = Inhibition of ERK1/2 phosphorylation in human CAPAN-1 cells harboring KRAS G12V mutant incubated for 4 hrs by AlphaLISA assay; format: cell-based; details: CAPAN-1, 4 h
CAPAN-1 = assay: Cytotoxicity against human CAPAN-1 cells harboring KRAS G12V mutant cultured as 2D cells assessed as reduction in cell viability incubated for 120 hrs by CellTiter-Glo luminescence assay; format: functional, cell-based; details: CAPAN-1, 120 h
A-375 = assay: Cytotoxicity against human A-375 cells assessed as reduction in cell viability incubated for 120 hrs by CellTiter-Glo luminescence assay; format: functional, cell-based; details: A-375, 120 h
[3] = Inhibition of 6His-tagged KRAS G12V mutant(1 to 169 residues)/GST-tagged GMPPNP-bound BRAF RBD (155 to 229 reisudes)/Cyclophilin A (unknown origin) tri-complex protein-protein interaction incubated for 3 hrs by TR-FERT based disruption assay; set-up: species or system Homo sapiens
[4] = Apparent permeability across apical to basolateral side in human Caco-2 cells at 5 uM incubated for 2 hrs by LC-MS/MS analysis; format: ADME, cell-based
[5] = Inhibition of 6His-tagged wildtype KRAS (1 to 169 residues)/GST-tagged GMPPNP-bound BRAF RBD (155 to 229 reisudes)/Cyclophilin A (unknown origin) tri-complex protein-protein interaction incubated for 3 hrs by TR-FERT based disruption assay; set-up: species or system Homo sapiens
[6] = Inhibition of ERK1/2 phosphorylation in human ASPC1 cells harboring KRAS G12D mutant incubated for 4 hrs by AlphaLISA assay; format: cell-based; details: ASPC1, 4 h
[7] = Lipophilicity, logD of compound at pH 7.4 by Agilent 1290 II uPLC analysis; format: physicochemical; details: buffer
NCI-H358 = assay: Cytotoxicity against human NCI-H358 cells harboring KRAS G12C mutant cultured as 2D cells assessed as reduction in cell viability incubated for 120 hrs by CellTiter-Glo luminescence assay; format: functional, cell-based; details: NCI-H358, 120 h
[8] = Inhibition of 6His-tagged KRAS G12C mutant(1 to 169 residues)/GST-tagged GMPPNP-bound BRAF RBD (155 to 229 reisudes)/Cyclophilin A (unknown origin) tri-complex protein-protein interaction incubated for 3 hrs by TR-FERT based disruption assay; set-up: species or system Homo sapiens
[9] = Inhibition of 6His-tagged KRAS G12D mutant(1 to 169 residues)/GST-tagged GMPPNP-bound BRAF RBD (155 to 229 reisudes)/Cyclophilin A (unknown origin) tri-complex protein-protein interaction incubated for 3 hrs by TR-FERT based disruption assay; set-up: species or system Homo sapiens
[10] = Inhibition of ERK1/2 phosphorylation in human NCI-H358 cells harboring KRAS G12C mutant incubated for 4 hrs by AlphaLISA assay; format: cell-based; details: NCI-H358, 4 h
ASPC1 = assay: Cytotoxicity against human ASPC1 cells harboring KRAS G12D mutant cultured as 2D cells assessed as reduction in cell viability incubated for 120 hrs by CellTiter-Glo luminescence assay; format: functional, cell-based; details: ASPC1, 120 h
[11] = target: Peptidyl-prolyl cis-trans isomerase A (Homo sapiens, UniProt P62937); assay: Binding affinity to Avi-tagged Cyclophilin A (unknown origin) assessed as dissociation constant by SPR analysis
[12] = Half-life in female BALB/c mouse at 1 mg/kg, iv measured after 24 hrs by LC-MS/MS analysis; format: ADME, organism-based; details: in vivo
[13] = Metabolic stability in mouse liver microsomes assessed as half-life at 2 uM measured upto 60 mins in presence of NADPH by LC-MS/MS analysis; format: ADME, Microsome
[14] = Efflux ratio of apparent permeability in human Caco-2 cells at 5 uM incubated for 2 hrs by LC-MS/MS analysis; format: ADME, cell-based
[15] = Oral bioavailability in female BALB/c mouse at 10 mg/kg measured after 24 hrs by LC-MS/MS analysis; format: ADME, organism-based; details: in vivo
[16] = Clearance in female BALB/c mouse at 1 mg/kg, iv measured after 24 hrs by LC-MS/MS analysis; format: ADME, organism-based; details: in vivo
NCI-H1975 = assay: Cytotoxicity against human NCI-H1975 cells harboring wildtype KRAS cultured as 2D cells assessed as reduction in cell viability incubated for 120 hrs by CellTiter-Glo luminescence assay; format: functional, cell-based; details: NCI-H1975, 120 h
[17] = Oral bioavailability in female BALB/c mouse blood at 10 mg/kg measured after 24 hrs by LC-MS/MS analysis; format: ADME, organism-based
[18] = Clearance in female BALB/c mouse blood at 1 mg/kg, iv measured after 24 hrs by LC-MS/MS analysis; format: ADME, organism-based

Peptidyl-prolyl cis-trans isomerase A, sequence (P62937 whole entry): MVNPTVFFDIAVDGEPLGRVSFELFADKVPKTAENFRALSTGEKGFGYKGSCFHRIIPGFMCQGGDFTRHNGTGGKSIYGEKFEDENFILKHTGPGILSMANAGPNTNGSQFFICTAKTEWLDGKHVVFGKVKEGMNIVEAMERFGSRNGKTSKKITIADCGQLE

| solubility kinetic at 5 h [1] [µM] | EC50 [2] [µM] | IC50 [3] [µM] | Papp A→B at 2 h, 5 µM [4] [×10⁻⁶ cm/s] | IC50 [5] [µM] | EC50 [6] [µM] | logD [7] | IC50 [8] [µM] | IC50 [9] [µM] | EC50 [10] [µM] | Kd [11] [µM] | half-life [12] [min] | half-life at 2 µM [13] [min] | efflux ratio at 2 h, 5 µM [14] | bioavailability [15] [%] | SMILES | EC50 (CAPAN-1) [µM] | EC50 (A-375) [µM] | EC50 (NCI-H358) [µM] | EC50 (ASPC1) [µM] | EC50 (NCI-H1975) [µM] | also measured |
| --- | --- | --- | --- | --- | --- | --- | --- | --- | --- | --- | --- | --- | --- | --- | --- | --- | --- | --- | --- | --- | --- |
| 15 (≈ 10.5 µg/mL) | 0.147 | 0.301 | 4.3 | 0.615 | 3.41 | 4.8 | 0.208 | 1.95 | 0.166 | 18.7 | 120 | 94 | 1.6 | 53 | CCn1c(-c2cccnc2[C@H](C)OC)c2c3cc(ccc31)-c1csc(n1)C[C@H](NC(=O)C1CC1)C(=O)N1CCC[C@H](N1)C(=O)OCC(C)(C)C2 | 0.485 | 5.95 | 0.403 | 0.852 | 0.188 | clearance [16]: 5 mL/min/kg |
| 49 (≈ 39.9 µg/mL) | 0.003 | – | 0.94 | 0.108 | 0.042 | – | 0.058 | 0.548 | 0.011 | 0.468 | 42 | 5 | 2.9 | 0.8 | CCn1c(-c2cccnc2[C@H](C)OC)c2c3cc(ccc31)-c1csc(n1)C[C@H](NC(=O)[C@H](C(C)C)N(C)C(=O)N(C)C)C(=O)N1CCC[C@H](N1)C(=O)OCC(C)(C)C2 | 0.018 | 5.82 | 0.006 | – | 0.026 | clearance [16]: 55 mL/min/kg; IC50 (ASPC1): 0.075 µM |
| 5 (≈ 3.57 µg/mL) | 0.124 | 0.334 | 3.1 | 0.628 | > 10 | 4.3 | 0.224 | 2.31 | 0.952 | 6.52 | 96 | 44 | 1.7 | 44 | CCn1c(-c2cccnc2[C@H](C)OC)c2c3cc(ccc31)-c1csc(n1)C[C@H](NC(=O)[C@H]1CCO1)C(=O)N1CCC[C@H](N1)C(=O)OCC(C)(C)C2 | 0.615 | > 10 | 0.429 | 1.64 | 0.402 | clearance [16]: 3.33 mL/min/kg |
| 15 (≈ 11.1 µg/mL) | 0.011 | 0.084 | 2.3 | 0.139 | 0.146 | – | 0.051 | 0.346 | 0.026 | 2.42 | 126 | 26 | 7.5 | 49 | CCn1c(-c2cccnc2[C@H](C)OC)c2c3cc(ccc31)-c1csc(n1)C[C@H](NC(=O)[C@H]1[C@@H]3COC[C@@H]31)C(=O)N1CCC[C@H](N1)C(=O)OCC(C)(C)C2 | 0.069 | > 10 | 0.03 | 0.092 | – | clearance [16]: 6.67 mL/min/kg |

More lines, now with the values behind:

| SMILES | solubility kinetic at 5 h [1] [µM] | EC50 [2] [µM] | IC50 [3] [µM] | Papp A→B at 2 h, 5 µM [4] [×10⁻⁶ cm/s] | IC50 [5] [µM] | EC50 [6] [µM] | logD [7] | IC50 [8] [µM] | IC50 [9] [µM] | EC50 [10] [µM] | Kd [11] [µM] | half-life [12] [min] | half-life at 2 µM [13] [min] | efflux ratio at 2 h, 5 µM [14] | bioavailability [15] [%] | EC50 (CAPAN-1) [µM] | EC50 (A-375) [µM] | EC50 (NCI-H358) [µM] | EC50 (ASPC1) [µM] | EC50 (NCI-H1975) [µM] | also measured |
| --- | --- | --- | --- | --- | --- | --- | --- | --- | --- | --- | --- | --- | --- | --- | --- | --- | --- | --- | --- | --- | --- |
| CCn1c(-c2cc(N3CCN(C4CC4)CC3)cnc2[C@H](C)OC)c2c3cc(ccc31)-c1csc(n1)C[C@H](NC(=O)[C@H]1C[C@@H]1C)C(=O)N1CCC[C@H](N1)C(=O)OCC(C)(C)C2 | 5 (≈ 4.19 µg/mL) | 0.0013 | 0.064 | 2.2 | 0.117 | 0.0152 | 5.3 | 0.05 | 0.277 | 0.0049 | 0.396 | – | – | – | – | 0.0081 | > 10 | 0.0034 | 0.0139 | – | – |
| CCn1c(-c2cccnc2[C@H](C)OC)c2c3cc(ccc31)-c1csc(n1)C[C@H](NC(=O)[C@H](C(C)C)N(C)C(=O)N1CCC1)C(=O)N1CCC[C@H](N1)C(=O)OCC(C)(C)C2 | < 2 | 0.002 | – | 0.09 | 0.107 | 0.022 | – | 0.035 | 0.491 | 0.001 | 0.293 | 48 | 9 | 13.6 | 2.2 | 0.011 | 4.4 | 0.007 | – | 0.028 | clearance [16]: 65 mL/min/kg; IC50 (ASPC1): 0.037 µM |
| CCn1c(-c2cc(N3CCN(C)CC3)cnc2[C@H](C)OC)c2c3cc(ccc31)-c1csc(n1)C[C@H](NC(=O)[C@H]1CCO1)C(=O)N1CCC[C@H](N1)C(=O)OCC(C)(C)C2 | 117 (≈ 95.1 µg/mL) | 0.002 | 0.077 | 0.4 | 0.138 | 0.0501 | 4.3 | 0.05 | 0.435 | 0.0106 | – | – | > 120 | 62 | – | 0.0142 | 6.95 | 0.0223 | 0.0452 | 0.0079 | – |
| CCn1c(-c2cccnc2[C@H](C)OC)c2c3cc(ccc31)-c1csc(n1)C[C@H](NC(=O)[C@H](C(C)C)N(C)C(=O)OC)C(=O)N1CCC[C@H](N1)C(=O)OCC(C)(C)C2 | < 2 | 0.008 | – | 0.08 | 0.742 | 0.326 | – | 0.302 | 3.07 | 0.063 | 0.184 | – | 11 | 7.4 | – | 0.028 | 5.42 | 0.035 | – | – | IC50 (ASPC1): 0.4 µM |
| CCn1c(-c2cc(N3CC4CC(C3)N4C)cnc2[C@H](C)OC)c2c3cc(ccc31)-c1csc(n1)C[C@H](NC(=O)[C@H]1C[C@@H]1C)C(=O)N1CCC[C@H](N1)C(=O)OCC(C)(C)C2 | 130 (≈ 107 µg/mL) | 0.0005 | 0.071 | 0.2 | 0.116 | 0.0044 | 3.9 | 0.053 | 0.272 | 0.0021 | 0.023 | – | > 120 | 96 | – | 0.0021 | 2.98 | 0.0017 | 0.0053 | – | bioavailability [17]: 5.7%; clearance [18]: 16.7 mL/min/kg |
| CCn1c(-c2cc(N3CCN(C)CC3)cnc2[C@H](C)OC)c2c3cc(ccc31)-c1csc(n1)C[C@H](NC(=O)[C@H]1[C@@H]3COC[C@@H]31)C(=O)N1CCC[C@H](N1)C(=O)OCC(C)(C)C2 | 23 (≈ 19.3 µg/mL) | 0.0003 | 0.04 | 0.3 | 0.069 | 0.0024 | 4.1 | 0.029 | 0.151 | 0.0017 | 0.06 | – | > 120 | 43 | – | 0.0011 | 9.45 | 0.0004 | 0.0021 | 0.0004 | – |

— ChEMBL document CHEMBL6115029, “Discovery of Daraxonrasib (RMC-6236), a Potent and Orally Bioavailable RAS(ON) Multi-selective, Noncovalent Tri-complex Inhibitor for the Treatment of Patients with Multiple RAS-Addicted Cancers” (J Med Chem, 2025)
